From publication PMC9268013, “Design, Synthesis, and Biological Evaluation of N14-Amino Acid-Substituted Tetrandrine Derivatives as Potential Antitumor Agents against Human Colorectal Cancer” (Molecules, 2022) come the findings set out here.

Data set [1] deals with Bax/Bcl-2. Description: Western blot, Bax/Bcl-2 in HCT-15 cells. Format: cell-based, human. As to conditions: HCT-15, only at 5 μM, p < 0.05. On the procedure: (§1) The protein levels in HCT-15 cells were evaluated via Western blot analysis. The cells were cultured in dishes (10^7 cells per dish) and incubated overnight at 37 °C, 0.625, 1.25, 2.5, and 5 μM of 16 was added in triplicate after 24 h of incubation. Then, the cells were harvested and lysed in Laemmli buffer (glycerol, 1M TRIS pH 6.8, 1% SDS, MQ H2O and 20% β-mercaptoethanol). The samples were boiled for 5 min at 95 °C, and the protein content was determined using a BCA kit. Equal amounts of 30 μg of sample were placed on a Tris/HCl gel and separated by SDS-PAGE electrophoresis. Then, the samples were transferred to a PVDF membrane (Milibo, Co., Ltd., Billyka, MA, USA) and blocked with 5% skimmed milk powder for 2 h. Diluted primary antibodies Bcl-2 (1:3000), Bax (1:10,000), caspase-3 (l:2000), p62 (1:1000), Beclin1 (1:1000), LC3 (1:2000), and β-actin (1:1000) were incubated overnight at 4 °C, followed by a horseradish peroxidase-conjugated goat anti-rabbit IgG secondary antibody (ProteinTech, China) for 2 h at room temperature. Then, immunoreactivity was developed with diaminobenzidine solution, and scanned and recorded by a gel imaging system (G:BOX Chemi XL1.4, Frederick, MD, USA).
(In general: A western blot detects proteins with antibodies after separation by electrophoresis.)

Data set [2] relates to human liver cancer cells (HepG2). Put plainly: MTT antiproliferative assay, HepG2. Type of data set: cell-based. How it is done: (§2) Human lung cancer cell (A549,), human umbilical vein endothelial cells (HUVECs,), human colon cancer cell lines (HCT-15), human breast cancer cells (MCF-7), human liver cancer cells (HepG2), human pancreatic cancer cells (BxPC-3), and human hepatic cell line (L-02) were obtained from the Sichuan University. A549, HUVECs, and L-02 were cultured in DMEM medium (high glucose, HyClone, GE Healthcare, Sydney, Australia). Human colon cancer cell lines HCT-15, human pancreatic cancer cells […] BxPC-3 were cultured in RPMI-1640. Human breast cancer cells MCF-7 and human liver cancer cells HepG2 were cultured in MEM medium. All the mediums, including 10% fetal bovine serum (FBS, HyClone, GE Healthcare, Sydney, Australia) and 1% ampicillin/streptomycin, were used to culture the above cells at 37 °C in a humidified atmosphere (5% CO2 and 95% air).
(§3) The antiproliferative activity of the title compounds was determined using the MTT (3-(4,5-dimethylthiazol-2-yl)-2,5-diphenyltetrazolium bromide, Sigma-Aldrich, Saint Louis, MO, USA) assay on different cells. Cells lines were seeded into 96-well plates at a density of 2000 to 6000 cells/well. DMSO was used to dissolve the test compounds, and TET was used as a positive control. After 24 h, the test compounds were added at different concentrations (0.625, 1.25, 2.5, 5, 10, and 20 μM) and incubated at 37 °C for 72 h. MTT was added to each well at a final concentration of 0.5 mg/mL and incubated at 37 °C for 4 h. Then, 150 μL of DMSO was added to each well to dissolve the formazan crystals. The absorbance was measured at 570 nm by a microplate reader (ELX800UV, Bio-Tek, Windoski, VT, USA). All measurements were repeated at least three times under the same conditions. Graphpad Prism 8.0 was used to calculate the IC50 values.

Data set [3] has as its system human normal hepatocyte cells (L-02). Put plainly: MTT toxicity assay, normal hepatocytes L-02. Format: cell-based. As to conditions: 72 h, normal hepatocyte L-02 (toxicity), read-out: Antiproliferative Activity (IC50/μM) L-02. How it is done: as §2, §3
Background: Tetrazolium dyes change colour on reduction, which living cells bring about.

For data set [4], the system named is caspase-3. Put plainly: Western blot, caspase-3 in HCT-15 cells. Type of data set: cell-based, human. As to conditions: HCT-15, 0.625, 1.25, and 2.5 μM, p < 0.05, no concentration dependence. On the procedure:
as §1

For data set [5], the system named is human breast cancer cells (MCF-7). Put plainly: MTT antiproliferative assay, MCF-7. Type of data set: cell-based. How it is done:
as §2, §3

Data set [6] concerns Beclin-1. Description: Western blot, Beclin-1 in HCT-15 cells. Type of data set: cell-based, human. The following applies: HCT-15, increasing concentration, p < 0.01. On the procedure: as §1
Data set [7] is described as follows: Aqueous solubility determination by HPLC. Type of data set: physicochemical. As to conditions: neutral water, vs TET. How it is done: Briefly, each tested compound (10 mg) was dissolved in 10 mL of CH3OH, and the standard solution (0.5 mL) was used to determine the wavelength of maximum absorbance by HPLC. The solution was diluted as necessary, and the solubility was determined by linear regression with R^2 > 0.999. Each tested compound (5 mg) was ultrasound dissolved in 3 mL of pure water for 1 h at room temperature, and the mixture was then […] at 3000 rpm for 15 min. The saturated supernatants were determined by HPLC at the wavelength of the maximum absorption, and the absorbances were obtained. The solubility was calculated according to the standard curve.

The subject of data set [8] is HCT-15 cells. Description: Live/dead FDA/PI double staining, HCT-15. Type of data set: cell-based. As to conditions: Homo sapiens, HCT-15, FDA/PI, 48 h, read-out: Viable cells retained. How it is done:
HCT-15 or HUVEC cells were cultured in six-well plates for 24 h. The cells were washed with PBS and incubated with medium containing 0.625, 1.25, 2.5, 5, and 10 μM of 16 for 48 h. Afterwards, the medium was replaced, and the cells were washed twice with PBS, resuspended in the solution containing 100 μL FDA (0.02 mg/mL, Sigma, St. Louis, MO, USA) and 30 μL PI (0.02 mg/mL, Sigma, St. Louis, MO, USA), and treated in the dark at room temperature for 10 min. The cells were imaged with a fluorescence microscope (Nikon ECLIPSE TE2000-U, Tokyo, Japan).

Data set [9] concerns p62/SQSTM1 (P62). Put plainly: Western blot, p62/SQSTM1 in HCT-15 cells. Format: cell-based, human. As to conditions: HCT-15, 1.25, 2.5, and 5 μM, concentration-dependent, p < 0.05. On the procedure: as §1
For data set [10], the system named is HCT-15 cells. Description: Transwell invasion assay. Type of data set: cell-based, human. The following applies: HCT-15, transwell, 5 and 10 μM, 20 h. On the procedure:
The cell motility inhibitory effect of 16 on HCT-15 cells was evaluated by invasion assay. Briefly, cells were harvested and resuspended in serum-free medium that contained 0.625, 1.25, 2.5, 5, and 10 μM of 16, and were seeded into the upper wells of a transwell chamber (Millicell, […] pore size, 12-mm diameter Millipore) coated with 50 μL of Matrigel (1:3 dilution in serum-free medium, Corning/BD Biosciences) at a density of 2 × 10^5 cells/mL. Meanwhile, 600 μL medium containing 10% FBS and corresponding samples were added into the lower chambers. Then, 20 h later, the invading cells were fixed with 4% paraformaldehyde and stained with 0.2% crystal violet for 30 min. Afterwards, the chambers were washed twice with PBS and left to dry. Cells which had migrated to the lower chamber of the transwell were photographed using a digital camera with an inverted microscope (Nikon ECLIPSE TE2000-U, Tokyo, Japan), and the crystal violet positive cells were counted.

Molecules are shown by their SMILES. Several values for one entry are separate records, joined by “and”; a condition that tells them apart may be missing. Equal entries are not always repeated. Some results are limits rather than exact numbers.

As to `COc1cc(NC(=O)[C@@H]2CCCN2)c2cc1Oc1ccc(cc1)C[C@H]1c3cc(c(OC)cc3CCN1C)Oc1c(OC)c(OC)cc3c1[C@H](C2)N(C)CC3` [Compound 16, 14-N-(L-proline)-tetrandrine], in [1], the “Ratio of Bax/Bcl-2” value is given as “enhanced”. In addition, the IC50 was 1.05 ± 0.03 µM in data set [2] (72 h); below 1.5 µM in data set [2] (Homo sapiens, HepG2, 72 h); above 20 µM in data set [3]; 1.46 ± 0.13 µM in data set [5] (72 h); below 1.5 µM in data set [5] (Homo sapiens, MCF7, 72 h). For the same compound, the Caspase-3 level result in [4] was “significantly decreased”. Further, in data set [6], the Beclin-1 level entry is “markedly enhanced”. Moreover, in data set [7], the “Increase of aqueous solubility compared to TET” value is > 5 fold and 5 fold. Moreover, in [8] (5 μM), the viability at 5 µM is 18.3%. In [8] (10 μM), the viability at 10 µM was 17.6%. In addition, the P62 contents entry in [9] is on record as “significantly lessened”. Also, the Invaded cells result in data set [10] is “almost no cancer cells were observed”.
